This passage reports IC50 results from US20220168309A1 (F-STAR THERAPEUTICS, INC., priority 2019, published 2022).

Molecules are shown by their SMILES.

The target of one assay is STING (Homo sapiens, UniProt Q86WV6). As to the kind of experiment: STING antagonist activity, cell-based ISG54 promoter-reporter luciferase measurement of IRF activity (THP-1 dual / RAW-ISG cells). The conditions noted are these: Antagonist Activity of Exemplary Compounds; cell line and agonist not given. The method in brief: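 THP-1 dual or RAW-ISG cells (50,000/well) pretreated 1 h with compound (10 to 0.01 uM), then stimulated with SB 11285 (30 nM or 1 μM) or 2′3′-cGAMP (10 ug/mL or lipo mixture) for 18–20 h at 37° C. IRF-driven luciferase read by Quanti-Luc; % inhibition versus untreated or DMSO wells, IC50 by curve fit.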
Sequence of STING (Q86WV6 whole entry): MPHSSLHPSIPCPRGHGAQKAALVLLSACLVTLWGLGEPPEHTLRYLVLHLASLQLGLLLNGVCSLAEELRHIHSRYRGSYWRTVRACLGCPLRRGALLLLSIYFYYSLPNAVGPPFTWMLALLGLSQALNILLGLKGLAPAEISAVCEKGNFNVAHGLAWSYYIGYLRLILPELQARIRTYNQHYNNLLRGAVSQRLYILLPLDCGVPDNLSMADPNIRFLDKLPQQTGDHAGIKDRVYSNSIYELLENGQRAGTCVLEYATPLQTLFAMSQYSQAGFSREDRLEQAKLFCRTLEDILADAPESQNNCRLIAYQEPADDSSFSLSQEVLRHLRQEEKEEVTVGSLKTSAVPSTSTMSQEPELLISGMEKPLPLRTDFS
`CCN(CC)c1nc2nc(Cl)nc(Cl)c2n1CCCCCCCCCCCCCCCC(=O)OC` [Compound 117, methyl 16-(2,6-dichloro-8-(diethylamino)-7H-purin-7-yl)hexadecanoate]: the IC50 (usually the concentration at which inhibition is half-maximal) lay in the range of 5000 to 10000 nM.

The same assay, now with this note: Antagonist Activity of Exemplary Compounds; cell line and agonist not given; read-out: IC50.
For `Cc1nc2nc(Cl)nc(S(=O)(=O)C(C)C)c2n1CCCCCCCCCCCCCCCC(N)=O` [Compound 149, 16-(2-chloro-6-(isopropylsulfonyl)-8-methyl-7H-purin-7-yl)hexadecanamide], the concentration for half-maximal inhibition (IC50) was 1 to 1000 nM.

With `Cc1nc2nc(Cl)nc(S(=O)(=O)C(C)C)c2n1CCCCCCCCCCCCCCCCN1CCOCC1` [Compound 142], the half-inhibitory concentration (IC50) was in the range of 1 to 1000 nM.

Turning to `COC(=O)CCCCCCn1cnc2nc(Cl)nc(Cl)c21` [Compound 13], the half-inhibitory concentration (IC50) was in the range of 1 to 1000 nM.

`COC(=O)CCCCCCCCCCCCCCCn1cnc2c(Cl)nc(NC(C)=O)nc21` [Compound 47, methyl 16-(2-acetamido-6-chloro-9H-purin-9-yl)hexadecanoate]: the half-inhibitory concentration (IC50) is > 20000 nM.

As to `COC(=O)CCCCCCCCCCCCCCCn1c(C)nc2nc(Cl)nc(S(C)(=O)=O)c21` [Compound 69, methyl 16-(2-chloro-8-methyl-6-(methylsulfonyl)-7H-purin-7-yl)hexadecanoate], the IC50 was in the range of 1 to 1000 nM.

With `Cc1nc2nc(Cl)nc(Cl)c2n1C` [Compound 82, 2,6-dichloro-7,8-dimethyl-7H-purine], the half-inhibitory concentration (IC50) was 5000 to 10000 nM.

`COCc1nc2nc(Cl)nc(Cl)c2n1CCCCCCCCCCCCCCCC(=O)OC` [Compound 92, Methyl 16-(2,6-dichloro-8-(methoxymethyl)-7H-purin-7-yl)hexadecanoate]: the IC50 was 1 to 1000 nM.

On to `COC(=O)CCCCCCCCCCCCCCCn1c(O)nc2c(Cl)nc(Cl)nc21` [Compound 53, methyl 16-(2,6-dichloro-8-oxo-7,8-dihydro-9H-purin-9-yl)hexadecanoate], for which the IC50 is > 20000 nM.

Regarding `CCOC(=O)CCCCCCCn1cnc2nc(Cl)nc(Cl)c21` [Compound 12], the IC50 is 1 to 1000 nM.

As to `COC(=O)CCCCCOC1CCN(CCCCCCn2c(C)nc3nc(Cl)nc(Cl)c32)CC1` [Compound 156, Methyl 6-((1-(6-(2,6-dichloro-8-methyl-7H-purin-7-yl)hexyl)piperidin-4-yl)oxy)hexanoate], the half-maximal inhibitory concentration (IC50) was 1000 to 5000 nM.

With `Cc1nc2nc(Cl)nc(Cl)c2n1CCCCCCCCCCCCCCCc1nnnn1C` [Compound 101, 2,6-dichloro-8-methyl-7-(15-(1-methyl-1H-tetrazol-5-yl)pentadecyl)-7H-purine], the IC50 lay in the range of 1 to 1000 nM.

Take `Cc1nc2nc(Cl)nc(S(=O)(=O)C(C)C)c2n1CCCCCCCCCCCCCCCc1n[nH]c(=O)o1` [Compound 165, 5-(15-(2-chloro-6-(isopropylsulfonyl)-8-methyl-7H-purin-7-yl)pentadecyl)-1,3,4-oxadiazol-2(3H)-one]: the half-maximal inhibitory concentration (IC50) fell in the range of 1 to 1000 nM.

`Cc1nc2nc(Cl)nc(Cl)c2n1CCCCCCCCCCCCCCCC#N` [Compound 157, 16-(2,6-dichloro-8-methyl-7H-purin-7-yl)hexadecanenitrile]: the IC50 lay within 1 to 1000 nM.

As to `COC(=O)CCCCCCCCCCCCCCCn1ccc2c(Cl)nc(Cl)nc21` [Compound 50, methyl 16-(2,4-dichloro-7H-pyrrolo[2,3-d]pyrimidin-7-yl)hexadecanoate], the half-maximal inhibitory concentration (IC50) is > 20000 nM.

Take `COC(=O)CCCCCCCCCCCCCCCn1c(-c2ccccc2)nc2nc(Cl)nc(Cl)c21` [Compound 71, methyl 16-(2,6-dichloro-8-phenyl-7H-purin-7-yl)hexadecanoate]: the IC50 was in the range of 1000 to 5000 nM.

On to `Cc1nc2nc(Cl)nc(Cl)c2n1CCCCCCCCCCCCCCCCO` [Compound 75], for which the concentration for half-maximal inhibition (IC50) is 1 to 1000 nM.

For `COC(=O)CCCCCCCCCCCCCCCn1c(C)nc2nc(Cl)nc(OCCN(C)C)c21` [Compound 108, methyl 16-(2-chloro-6-(2-(dimethylamino)ethoxy)-8-methyl-7H-purin-7-yl)hexadecanoate], the concentration for half-maximal inhibition (IC50) was 1000 to 5000 nM.

As to `COC(=O)CCCCCCCCCCCCCCCn1c(CO)nc2nc(Cl)nc(Cl)c21` [Compound 93, Methyl 16-(2,6-dichloro-8-(hydroxymethyl)-7H-purin-7-yl)hexadecanoate], the IC50 was 1 to 1000 nM.
